Data: publication PMC3242765, “Inhibitors of Alphavirus Entry and Replication Identified with a Stable Chikungunya Replicon Cell Line and Virus-Based Assays” (PLoS ONE, 2011)
Where a name gives a salt, the structure may show the parent alone.

What was measured:
CHIKV replicon = test: microbe, parasite or virus in culture; type: cell-based, Chikungunya virus (CHIKV)

## CC(C)OC(=O)c1cc(O)c(O)c(O)c1 [Isopropyl gallate]
CHIKV replicon
  CHIKV replicon % left: 79.3%
SFV-Rluc
  SFV replication % left (surviving fraction, remaining percentage of SFV replication): 124.0%

## CC(C)NCC(O)c1ccc(NS(C)(=O)=O)cc1 (stereo not shown) [Sotalol hydrochloride]
CHIKV replicon
  CHIKV replicon % left: 80.1%
SFV-Rluc
  SFV replication % left (surviving fraction, remaining percentage of SFV replication): 100.5%

## CCCCNc1ccc(C(=O)OCCN(C)C)cc1 [p-Butylaminobenzoyldimethylaminoethanol]
CHIKV replicon
  CHIKV replicon % left: 77.1%
SFV-Rluc
  SFV replication % left (surviving fraction, remaining percentage of SFV replication): 45.4%

## CNC[C@H](O)c1cccc(O)c1.Cl [L-Phenylephrine hydrochloride]
CHIKV replicon
  CHIKV replicon % left: 104.1%
SFV-Rluc
  SFV replication % left (surviving fraction, remaining percentage of SFV replication): 85.1%

## NS(=O)(=O)c1cc2c(cc1Cl)NCNS2(=O)=O [Hydrochlorothiazide]
CHIKV replicon
  CHIKV replicon % left: 70.2%
SFV-Rluc
  SFV replication % left (surviving fraction, remaining percentage of SFV replication): 121.2%

## O=C1Nc2ccc(Cl)cc2C(c2ccccc2Cl)=NC1O (stereo not shown) [Lorazepam]
CHIKV replicon
  CHIKV replicon % left: 104.9%
SFV-Rluc
  SFV replication % left (surviving fraction, remaining percentage of SFV replication): 98.2%

## CC(C)(C)NCC(O)c1ccc(O)c(CO)c1 (stereo not shown) [Salbutamol]
CHIKV replicon
  CHIKV replicon % left: 78.4%
SFV-Rluc
  SFV replication % left (surviving fraction, remaining percentage of SFV replication): 151.4%

## Oc1cc(O)c2c(c1)O[C@H](c1ccc(O)c(O)c1)[C@H](O)[C@H]2c1c(O)cc(O)c2c1O[C@H](c1ccc(O)c(O)c1)[C@@H](O)C2 [Procyanidin B1]
CHIKV replicon
  CHIKV replicon % left: 104.7%
SFV-Rluc
  SFV replication % left (surviving fraction, remaining percentage of SFV replication): 128.1%

## CN1CCN=C(c2ccccc2)c2cc(Cl)ccc21 [Medazepam]
CHIKV replicon
  CHIKV replicon % left: 101.7%
SFV-Rluc
  SFV replication % left (surviving fraction, remaining percentage of SFV replication): 87.5%

## Nc1nc(N)c2nc(-c3ccccc3)c(N)nc2n1 [Triamterene]
CHIKV replicon
  CHIKV replicon % left: 71.2%
SFV-Rluc
  SFV replication % left (surviving fraction, remaining percentage of SFV replication): 93.0%

## Cn1c(=O)c2[nH]cnc2n(C)c1=O [Theophylline]
CHIKV replicon
  CHIKV replicon % left: 100.4%
SFV-Rluc
  SFV replication % left (surviving fraction, remaining percentage of SFV replication): 87.8%

## O=C(O)Cc1ccc(O)cc1 [4-Hydroxyphenylacetic acid]
CHIKV replicon
  CHIKV replicon % left: 87.2%
SFV-Rluc
  SFV replication % left (surviving fraction, remaining percentage of SFV replication): 103.6%

## CC(C)NCC(O)c1ccccc1Cl.Cl.O (stereo not shown) [Clorprenaline hydrochloride]
CHIKV replicon
  CHIKV replicon % left: 102.2%
SFV-Rluc
  SFV replication % left (surviving fraction, remaining percentage of SFV replication): 63.7%

## Nc1ccc(S(=O)(=O)Nc2nccs2)cc1 [Sulfathiazole]
CHIKV replicon
  CHIKV replicon % left: 78.5%
SFV-Rluc
  SFV replication % left (surviving fraction, remaining percentage of SFV replication): 138.1%

## Cc1cc(=O)oc2cc(O)ccc12 [Methylumbelliferone]
CHIKV replicon
  CHIKV replicon % left: 21.1%
SFV-Rluc
  SFV replication % left (surviving fraction, remaining percentage of SFV replication): 12.0%

## CCCCCCCCCCCCCCCC[N+](C)(C)C [Cetrimonium bromide]
CHIKV replicon
  CHIKV replicon % left: 80.5%
SFV-Rluc
  SFV replication % left (surviving fraction, remaining percentage of SFV replication): 75.0%

## CC(C)Cc1ccc(CC(=O)O)cc1 [Ibufenac]
CHIKV replicon
  CHIKV replicon % left: 78.9%
SFV-Rluc
  SFV replication % left (surviving fraction, remaining percentage of SFV replication): 102.2%

## Cc1cc2nc3c(=O)[nH]c(=O)nc-3n(C[C@H](O)[C@H](O)[C@H](O)CO)c2cc1C [Riboflavin]
CHIKV replicon
  CHIKV replicon % left: 63.1%
SFV-Rluc
  SFV replication % left (surviving fraction, remaining percentage of SFV replication): 43.1%

## CC(=O)Nc1ccccc1 [Acetanilide]
CHIKV replicon
  CHIKV replicon % left: 92.2%
SFV-Rluc
  SFV replication % left (surviving fraction, remaining percentage of SFV replication): 57.3%

## Oc1cc(O)c2c(c1)O[C@H](c1cc(O)c(O)c(O)c1)[C@H](O)C2 [(-)-Epigallocatechin]
CHIKV replicon
  CHIKV replicon % left: 89.9%
SFV-Rluc
  SFV replication % left (surviving fraction, remaining percentage of SFV replication): 101.9%

## Cc1cnc(NS(=O)(=O)c2ccc(N)cc2)nc1 [Sulfaperine]
CHIKV replicon
  CHIKV replicon % left: 100.8%
SFV-Rluc
  SFV replication % left (surviving fraction, remaining percentage of SFV replication): 127.8%

## O=c1oc2c3c4c(cc2c2c1CCC2)CCCN4CCC3 [Coumarin 106]
CHIKV replicon
  CHIKV replicon % left: 91.5%
SFV-Rluc
  SFV replication % left (surviving fraction, remaining percentage of SFV replication): 82.1%

## COc1cc(O)c2c(=O)c(OC)c(-c3ccc(OC)c(OC)c3)oc2c1 [Quercetin-3,7,3',4'-tetramethylether]
CHIKV replicon
  CHIKV replicon % left: 58.2%
SFV-Rluc
  SFV replication % left (surviving fraction, remaining percentage of SFV replication): 65.0%

## O=C(N[C@H](CO)[C@H](O)c1ccc([N+](=O)[O-])cc1)C(Cl)Cl [Chloramphenicol]
CHIKV replicon
  CHIKV replicon % left: 53.2%
SFV-Rluc
  SFV replication % left (surviving fraction, remaining percentage of SFV replication): 73.8%

## CC(C)(O)C(Cl)(Cl)Cl [Chlorobutanol]
CHIKV replicon
  CHIKV replicon % left: 95.1%
SFV-Rluc
  SFV replication % left (surviving fraction, remaining percentage of SFV replication): 84.2%

## CCCNc1ccc(C(=O)OCC(O)CN(C)C)cc1 (stereo not shown) [Cornecaine]
CHIKV replicon
  CHIKV replicon % left: 80.5%
SFV-Rluc
  SFV replication % left (surviving fraction, remaining percentage of SFV replication): 77.3%

## COc1ccc2cc([C@H](C)C(=O)O)ccc2c1 [Naproxen]
CHIKV replicon
  CHIKV replicon % left: 89.2%
SFV-Rluc
  SFV replication % left (surviving fraction, remaining percentage of SFV replication): 92.7%

## C[C@@H]1O[C@@H](Oc2c(-c3ccc(O)c(O)c3)oc3cc(O)cc(O)c3c2=O)[C@H](O)[C@H](O)[C@H]1O.O.O [Quercitrin dihydrate]
CHIKV replicon
  CHIKV replicon % left: 45.2%
SFV-Rluc
  SFV replication % left (surviving fraction, remaining percentage of SFV replication): 11.4%

## Cc1ccc(C(C)C)c(O)c1 [Thymol]
CHIKV replicon
  CHIKV replicon % left: 71.1%
SFV-Rluc
  SFV replication % left (surviving fraction, remaining percentage of SFV replication): 42.0%

## Oc1c(I)cc(Cl)c2cccnc12 [Clioquinol]
CHIKV replicon
  CHIKV replicon % left: 32.7%
SFV-Rluc
  SFV replication % left (surviving fraction, remaining percentage of SFV replication): 71.9%

## CC[C@@]1(O)C(=O)OCc2c1cc1n(c2=O)Cc2cc3ccccc3nc2-1 [Camptothecin]
CHIKV replicon
  CHIKV replicon % left: 100.4%
SFV-Rluc
  SFV replication % left (surviving fraction, remaining percentage of SFV replication): 87.7%

## COc1ccc2ccc(=O)oc2c1 [Herniarin]
CHIKV replicon
  CHIKV replicon % left: 102.2%
SFV-Rluc
  SFV replication % left (surviving fraction, remaining percentage of SFV replication): 53.2%

## COc1cc(NS(=O)(=O)c2ccc(N)cc2)nc(OC)n1 [Sulfadimethoxine]
CHIKV replicon
  CHIKV replicon % left: 39.1%
SFV-Rluc
  SFV replication % left (surviving fraction, remaining percentage of SFV replication): 102.4%

## Cc1ccc2oc(=O)ccc2c1 [6-Methylcoumarin]
CHIKV replicon
  CHIKV replicon % left: 106.5%
SFV-Rluc
  SFV replication % left (surviving fraction, remaining percentage of SFV replication): 83.6%

## CCN(CC)CCOC(=O)c1ccc(N)cc1 [Procaine hydrochloride]
CHIKV replicon
  CHIKV replicon % left: 84.3%
SFV-Rluc
  SFV replication % left (surviving fraction, remaining percentage of SFV replication): 105.4%

## CNC(C)Cc1ccc(O)cc1.CNC(C)Cc1ccc(O)cc1.O=S(=O)(O)O (stereo not shown) [Pholedrine sulfate]
CHIKV replicon
  CHIKV replicon % left: 81.5%
SFV-Rluc
  SFV replication % left (surviving fraction, remaining percentage of SFV replication): 92.8%

## CC(C)(CO)[C@@H](O)C(=O)NCCC(=O)O [Calcium pantothenate]
CHIKV replicon
  CHIKV replicon % left: 89.1%
SFV-Rluc
  SFV replication % left (surviving fraction, remaining percentage of SFV replication): 67.9%

## CCCCC1(CC)C(=O)NC(=O)NC1=O [Butethal]
CHIKV replicon
  CHIKV replicon % left: 78.2%
SFV-Rluc
  SFV replication % left (surviving fraction, remaining percentage of SFV replication): 45.2%

## CCC(N)C(O)c1ccc(O)c(O)c1 (stereo not shown) [Ethylnorepinephrine]
CHIKV replicon
  CHIKV replicon % left: 104.3%
SFV-Rluc
  SFV replication % left (surviving fraction, remaining percentage of SFV replication): 126.8%

## Oc1cc(O)c2c(c1)O[C@H](c1ccc(O)c(O)c1)[C@@H](O)C2 [(+)-Catechin]
CHIKV replicon
  CHIKV replicon % left: 96.5%
SFV-Rluc
  SFV replication % left (surviving fraction, remaining percentage of SFV replication): 64.5%

## C#CCN(C)[C@H](C)Cc1ccccc1 [Selegiline hydrochloride]
CHIKV replicon
  CHIKV replicon % left: 43.1%
SFV-Rluc
  SFV replication % left (surviving fraction, remaining percentage of SFV replication): 57.0%

## COc1c2occc2cc2ccc(=O)oc12 [Xanthotoxin]
CHIKV replicon
  CHIKV replicon % left: 95.4%
SFV-Rluc
  SFV replication % left (surviving fraction, remaining percentage of SFV replication): 86.7%

## O=c1cc(C(F)(F)F)c2cc3c4c(c2o1)CCCN4CCC3 [Coumarin 153]
CHIKV replicon
  CHIKV replicon % left: 96.1%
SFV-Rluc
  SFV replication % left (surviving fraction, remaining percentage of SFV replication): 52.6%

## Oc1cc(O)c2c(c1)O[C@H](c1ccc(O)c(O)c1)[C@H](O)C2 [(-)-Epicatechin]
CHIKV replicon
  CHIKV replicon % left: 79.6%
SFV-Rluc
  SFV replication % left (surviving fraction, remaining percentage of SFV replication): 97.1%

## Cc1nc(NS(=O)(=O)c2ccc(N)cc2)oc1C [Sulfamoxole]
CHIKV replicon
  CHIKV replicon % left: 80.2%
SFV-Rluc
  SFV replication % left (surviving fraction, remaining percentage of SFV replication): 83.0%

## COC(=O)c1ccc(O)cc1 [Methyl p-hydroxybenzoate]
CHIKV replicon
  CHIKV replicon % left: 100.4%
SFV-Rluc
  SFV replication % left (surviving fraction, remaining percentage of SFV replication): 69.3%

## NCCCS(=O)(=O)O [Homotaurine]
CHIKV replicon
  CHIKV replicon % left: 89.2%
SFV-Rluc
  SFV replication % left (surviving fraction, remaining percentage of SFV replication): 118.7%

## COc1cc(-c2oc3cc(O)cc(O)c3c(=O)c2O)ccc1O [Isorhamnetin]
CHIKV replicon
  CHIKV replicon % left: 19.3%
SFV-Rluc
  SFV replication % left (surviving fraction, remaining percentage of SFV replication): 28.9%

## Cc1ccc(C)c(O)c1 [2,5-Dimethylphenol]
CHIKV replicon
  CHIKV replicon % left: 100.5%
SFV-Rluc
  SFV replication % left (surviving fraction, remaining percentage of SFV replication): 84.6%

## Cc1ccc(C(=O)NS(=O)(=O)c2ccc(N)cc2)cc1C [N-Sulfanilyl-3,4-xylamide]
CHIKV replicon
  CHIKV replicon % left: 100.7%
SFV-Rluc
  SFV replication % left (surviving fraction, remaining percentage of SFV replication): 72.0%
